Read-outs that look alike come from different tables or passages of the source.

What is called IC50 is the midpoint of a concentration-inhibition curve. The low end stands for greater potency in that assay, the high end for weaker potency in that assay. For orientation: EC50 means the concentration giving half of the maximal effect.

One assay has as its target T1, PARP8 (Homo sapiens, UniProt Q8N3A8).
T1 sequence (Q8N3A8 1-854): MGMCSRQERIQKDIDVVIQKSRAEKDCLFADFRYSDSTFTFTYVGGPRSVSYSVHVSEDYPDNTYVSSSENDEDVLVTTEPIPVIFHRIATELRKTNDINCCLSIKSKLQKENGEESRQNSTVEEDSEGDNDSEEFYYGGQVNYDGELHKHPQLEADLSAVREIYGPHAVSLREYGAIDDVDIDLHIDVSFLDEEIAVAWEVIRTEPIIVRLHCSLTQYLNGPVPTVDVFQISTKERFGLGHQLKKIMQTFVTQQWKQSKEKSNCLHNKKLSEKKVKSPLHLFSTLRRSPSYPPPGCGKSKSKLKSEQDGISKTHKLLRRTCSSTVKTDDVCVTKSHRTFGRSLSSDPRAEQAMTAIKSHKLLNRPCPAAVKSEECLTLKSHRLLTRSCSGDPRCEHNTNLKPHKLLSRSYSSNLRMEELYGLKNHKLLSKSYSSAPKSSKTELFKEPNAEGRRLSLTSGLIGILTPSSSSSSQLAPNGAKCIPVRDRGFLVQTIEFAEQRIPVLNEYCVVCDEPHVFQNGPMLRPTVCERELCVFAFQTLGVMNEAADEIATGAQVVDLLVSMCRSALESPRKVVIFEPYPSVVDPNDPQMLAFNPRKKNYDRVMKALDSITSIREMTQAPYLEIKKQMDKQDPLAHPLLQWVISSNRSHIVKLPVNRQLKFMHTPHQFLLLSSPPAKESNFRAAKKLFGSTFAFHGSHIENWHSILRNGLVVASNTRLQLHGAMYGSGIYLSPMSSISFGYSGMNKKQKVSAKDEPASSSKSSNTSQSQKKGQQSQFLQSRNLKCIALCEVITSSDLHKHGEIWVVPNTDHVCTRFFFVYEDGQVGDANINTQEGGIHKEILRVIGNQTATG
The experiment in a line: PARP panel: ADP-ribosylation of SRPK2 using 6-a-NAD+. In kind it is biochemical.

A further assay addresses T2, PARP10 (Homo sapiens, UniProt Q53GL7).
T2 construct: Human embryonic kidney (HEK) 293T cells expressing full-length PARP10; expressed in transfected cells; host or cells: HEK293T
T2 sequence (Q53GL7 1-1025): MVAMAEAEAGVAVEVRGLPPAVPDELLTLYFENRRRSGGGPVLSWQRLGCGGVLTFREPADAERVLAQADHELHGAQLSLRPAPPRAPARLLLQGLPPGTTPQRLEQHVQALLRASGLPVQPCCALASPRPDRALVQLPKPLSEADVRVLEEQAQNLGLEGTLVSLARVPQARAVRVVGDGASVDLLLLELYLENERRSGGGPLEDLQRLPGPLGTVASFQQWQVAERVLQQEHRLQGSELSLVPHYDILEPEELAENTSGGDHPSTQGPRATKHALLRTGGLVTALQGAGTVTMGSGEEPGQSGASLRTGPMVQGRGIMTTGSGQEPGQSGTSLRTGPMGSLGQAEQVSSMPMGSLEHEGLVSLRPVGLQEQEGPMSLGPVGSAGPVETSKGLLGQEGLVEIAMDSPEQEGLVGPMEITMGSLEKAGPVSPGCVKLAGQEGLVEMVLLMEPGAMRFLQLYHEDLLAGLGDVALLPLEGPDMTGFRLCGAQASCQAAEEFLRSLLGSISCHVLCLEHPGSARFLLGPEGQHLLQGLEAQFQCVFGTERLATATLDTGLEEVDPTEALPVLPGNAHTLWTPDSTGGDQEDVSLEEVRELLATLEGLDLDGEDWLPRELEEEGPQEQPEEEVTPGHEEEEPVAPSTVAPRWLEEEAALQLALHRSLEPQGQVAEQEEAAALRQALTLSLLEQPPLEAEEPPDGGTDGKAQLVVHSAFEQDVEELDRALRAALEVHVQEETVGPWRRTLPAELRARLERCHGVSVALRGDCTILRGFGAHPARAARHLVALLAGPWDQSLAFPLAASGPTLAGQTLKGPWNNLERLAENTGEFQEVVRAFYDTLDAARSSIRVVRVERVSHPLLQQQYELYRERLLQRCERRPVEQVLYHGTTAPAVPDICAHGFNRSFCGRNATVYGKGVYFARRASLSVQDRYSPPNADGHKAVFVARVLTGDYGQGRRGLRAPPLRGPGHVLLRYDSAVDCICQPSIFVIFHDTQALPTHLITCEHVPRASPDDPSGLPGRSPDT
The experiment in a line: PARP10-dependent ADP-ribosylation in HEK293T cells expressing GFP-PARP10, Western blot with ADP-ribose binding reagent. The assay is classed as cell-based. Conditions: for EC50: GFP-PARP10, 22 at 1-100 μM for 3 h. The procedure: We next determined if 22 could inhibit PARP10-dependent ADP-ribosylation in cells. […] Med. Chem. Lett. 25, pp. 4770-4773} Human embryonic kidney (HEK) 293T cells expressing full-length PARP10 were treated with increasing concentrations of 22 (1-100 μM). […] The EC50 value varies depending on the species quantified.
HEK293T cells were transfected with GFP-PARP10 and incubated with increasing concentrations of 22 (1-100 μM) for 3 h. Lysates were prepared and auto-ADP-ribosylation of PARP10 and its high molecular weight (HMW) targets were analyzed with an ADP-ribose binding reagent (α-APDr) (FIG. 2B) Quantification of data shown in FIG. 2(a).
(In general: A western blot detects proteins with antibodies after separation by electrophoresis.)

A further assay addresses T3, PARP11 (Homo sapiens, UniProt Q9NR21).
T3 sequence (Q9NR21 1-338): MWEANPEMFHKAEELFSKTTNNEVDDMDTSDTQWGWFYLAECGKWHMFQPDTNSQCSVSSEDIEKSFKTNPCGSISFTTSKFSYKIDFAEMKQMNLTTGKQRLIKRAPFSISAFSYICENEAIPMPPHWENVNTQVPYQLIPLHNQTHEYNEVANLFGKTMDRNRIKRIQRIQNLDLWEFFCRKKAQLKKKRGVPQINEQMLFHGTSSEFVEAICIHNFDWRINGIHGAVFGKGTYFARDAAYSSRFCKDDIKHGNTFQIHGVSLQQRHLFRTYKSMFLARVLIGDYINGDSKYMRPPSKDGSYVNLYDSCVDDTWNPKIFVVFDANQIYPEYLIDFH
Kind of assay: Inhibition of PARP11-mediated ADP-ribosylation of SRPK2 using NAD+ (100 μM). In kind it is biochemical. To be noted: ADP-ribosylation of SRPK2, NAD+ 100 μM.

On to `Cc1c(-c2ccnc(C(F)(F)F)c2)ccc2c1CCNC2=O` [Compound 22, 5-methyl-6-(2-(trifluoromethyl)pyridin-4-yl)-3,4-dihydroisoquinolin-1(2H)-one], for which the half-inhibitory concentration (IC50) was greater than 30 µM against PARP8 (6-a-NAD+) and 51.7 µM on PARP11. For the same compound, the PARP/PARP10 at PARP8 (PARP8 over PARP10cat) was greater than 10. For the same compound, the “inhibition of auto-ADP-ribosylation of PARP10 and PARP10-labeled targets in cells” value on PARP10 (1-100 μM) is given as “dose-dependent manner”. The concentration giving a half-maximal response (EC50) at PARP10 (read-out: EC50, PARP10 itself (auto-ADP-ribosylation)) is 11 µM; on PARP10 (read-out: EC50, PARP10 targets (HMW species)), 2.3 µM. Moreover, at PARP11, the “PARP11 pIC50 ± S.E.M.” value was found to be 4.29 ± 0.04.

These data come from patent US10899733B2, “Inhibitors of PARPs that catalyze mono-ADP-ribosylation” (OREGON HEALTH & SCIENCE UNIVERSITY, priority 2017, dated 2021).
